± gives the expanded uncertainty stated by the source.
What was measured:
[1] = Crystal; DSC
[2] = Molar enthalpy of transition or fusion; conditions: Crystal; DSC

Compound: C[N+](C)(C)C[C@H](O)CC(=O)[O-].O=C(O)/C=C/C(=O)O [L-carnitine fumarate]
- Triple point temperature [1]: 412.2 ± 0.8 K
- Molar enthalpy of transition or fusion [2]: 12.2 ± 0.335 kcal/mol

Source: the NIST ThermoML archive (doi:10.1021/acs.jced.7b00768)
